In brackets after ≈: the same amount, converted by molar mass.
What was measured:
Format in all cases: functional
[1] = Cytotoxicity against human SF268 cells assessed as growth inhibition after 48 hrs by sulforhodamine B assay; settings: SF-268, 48 h
[2] = Cytotoxicity against human NCI-H460 cells assessed as growth inhibition after 48 hrs by sulforhodamine B assay; settings: NCI-H460, 48 h
[3] = Cytotoxicity against human BxPC3 cells assessed as growth inhibition after 48 hrs by sulforhodamine B assay; settings: BXPC-3, 48 h
[4] = Cytotoxicity against human KM20L2 cells assessed as growth inhibition after 48 hrs by sulforhodamine B assay; settings: KM-20L2, 48 h
[5] = Cytotoxicity against human MCF7 cells assessed as growth inhibition after 48 hrs by sulforhodamine B assay; settings: MCF7, 48 h
[6] = Cytotoxicity against mouse P388 cells assessed as growth inhibition after 48 hrs by coulter particle counting method; settings: P388, 48 h, read-out: ED50 (the source's name)
[7] = Cytotoxicity against human DU145 cells assessed as growth inhibition after 48 hrs by sulforhodamine B assay; settings: DU-145, 48 h

C[C@H](C/C=C/C(C)(C)O)[C@H]1CC[C@@]2(C)C3=C(CC[C@]12C)[C@@]1(C)CC[C@H](O)C(C)(C)[C@@H]1CC3
GI50 [1]: 1.9 µg/mL (≈ 4.29 µM)
GI50 [2]: 1.9 µg/mL (≈ 4.29 µM)
GI50 [3]: 1.8 µg/mL (≈ 4.07 µM)
GI50 [4]: 1.8 µg/mL (≈ 4.07 µM)
GI50 [5]: 2 µg/mL (≈ 4.52 µM)
EC50 [6]: > 10 µg/mL
GI50 [7]: 1.9 µg/mL (≈ 4.29 µM)

C=C(C)[C@@H](O)CC[C@H](C)[C@@H]1CC=C2[C@]3(C)CC[C@H]4C(C)(C)[C@@H](O)CC[C@]4(C)[C@H]3CC[C@]21C
GI50 [1]: 0.33 µg/mL (≈ 0.745 µM)
GI50 [2]: 0.91 µg/mL (≈ 2.06 µM)
GI50 [3]: 0.83 µg/mL (≈ 1.87 µM)
GI50 [4]: 0.71 µg/mL (≈ 1.6 µM)
GI50 [5]: 0.79 µg/mL (≈ 1.78 µM)
EC50 [6]: > 10 µg/mL
GI50 [7]: 0.65 µg/mL (≈ 1.47 µM)

C=C(C)C(O)CC[C@@H](C)[C@@H]1CC[C@]2(C)C3=C(CC[C@@]12C)[C@@]1(C)CC[C@H](O)C(C)(C)[C@@H]1CC3 (some centres not stated)
GI50 [1]: 1.4 µg/mL (≈ 3.16 µM)
GI50 [2]: 1.7 µg/mL (≈ 3.84 µM)
GI50 [3]: 1.5 µg/mL (≈ 3.39 µM)
GI50 [4]: 7 µg/mL (≈ 15.8 µM)
GI50 [5]: 2.5 µg/mL (≈ 5.65 µM)
EC50 [6]: > 10 µg/mL
GI50 [7]: 1.5 µg/mL (≈ 3.39 µM)

C=C(C)[C@H](O)CC[C@H](C)[C@@H]1CC=C2[C@]3(C)CC[C@H]4C(C)(C)[C@@H](O)CC[C@]4(C)[C@H]3CC[C@]21C
GI50 [1]: 0.36 µg/mL (≈ 0.813 µM)
GI50 [2]: 0.19 µg/mL (≈ 0.429 µM)
GI50 [3]: 0.2 µg/mL (≈ 0.452 µM)
GI50 [4]: > 1 µg/mL
GI50 [5]: 0.68 µg/mL (≈ 1.54 µM)
EC50 [6]: > 10 µg/mL
GI50 [7]: 0.58 µg/mL (≈ 1.31 µM)

C[C@H](C/C=C/C(C)(C)O)[C@@H]1CC[C@]2(C)C3=C(CC[C@@]12C)[C@@]1(C)CC[C@H](O)C(C)(C)[C@@H]1CC3
GI50 [1]: 2.2 µg/mL (≈ 4.97 µM)
GI50 [2]: 1.9 µg/mL (≈ 4.29 µM)
GI50 [3]: 1.8 µg/mL (≈ 4.07 µM)
GI50 [4]: 2 µg/mL (≈ 4.52 µM)
GI50 [5]: 2.1 µg/mL (≈ 4.74 µM)
EC50 [6]: > 10 µg/mL
GI50 [7]: 1.9 µg/mL (≈ 4.29 µM)

C[C@@H](C/C=C/C(C)(C)O)[C@H]1CC[C@@]2(C)C3=C(C(=O)C[C@@]12C)[C@@]1(C)CC[C@H](O)C(C)(C)[C@@H]1CC3
GI50 [1]: > 1 µg/mL
GI50 [2]: > 1 µg/mL
GI50 [3]: > 1 µg/mL
GI50 [4]: > 1 µg/mL
GI50 [5]: > 1 µg/mL
EC50 [6]: > 10 µg/mL
GI50 [7]: > 1 µg/mL

From ChEMBL document CHEMBL3856200, “Isolation and Structure of Cancer Cell Growth Inhibitory Tetracyclic Triterpenoids from the Zimbabwean Monadenium lugardae” (2016)
